Data on 22 compounds can be found in the RepoRT retention time repository (doi:10.1016/j.aca.2012.07.013).

A short description of the series: RP, 50 × 2.1 mm, 1.7 µm, 0.5 mL/min, estimated dead time 0.22 min; A: 98% water + 2% acetonitrile + 0.1% formic acid, pH 3; B: 2% water + 98% acetonitrile + 0.1% formic acid, pH 3; gradient (min/%B) 0/0 0.5/0 4/60 8/100 9/100 9.2/0 10/0. To be noted: stereoisomer not certain.

Consider `Nc1ccc(C(F)(F)F)cc1` [4-trifluoro methylaniline], for which the LC retention time is 0.383 min. To `CCCCCCCCCCCCCCC(=O)OCC(O)COP(=O)([O-])OCC[N+](C)(C)C` (configuration not stated) [LPC (15:0)] belongs 4.67 min; to `CCCCCCCCCCCCCCCC(=O)OCC(O)COP(=O)([O-])OCC[N+](C)(C)C` (configuration not stated) [LPC (16:0)], 4.98 min. Next, `CCCCCCCCCCCCCCCCC(=O)OCC(O)COP(=O)([O-])OCC[N+](C)(C)C` (configuration not stated) [LPC (17:0)]: 5.3 min. To `CCCCCCCCCCCCCCCCCC(=O)OCC(O)COP(=O)([O-])OCC[N+](C)(C)C` (configuration not stated) [LPC (18:0)] belongs 5.64 min; to `CCC=CCC=CCC=CCC=CCC=CCC=CCCC(=O)OCC(O)COP(=O)([O-])OCC[N+](C)(C)C` (configuration not stated) [LPC (22:6)], 4.72 min. As for `CCCCCC=CCC=CCC=CCC=CCCCC(=O)OC(CO)COP(=O)(O)OCCN` (configuration not stated) [LPE (0:0/20:4(5Z,8Z,11Z,14Z)], the LC retention time is 4.74 min.

For `CCC=CCC=CCC=CCC=CCCCCCCC(=O)OC(CO)COP(=O)(O)OCCN` (configuration not stated) [LPE (0:0/20:4(8Z,11Z,14Z,17Z))], the LC retention time was 4.74 min. To `CCC=CCC=CCC=CCC=CCC=CCC=CCCC(=O)OC(CO)COP(=O)(O)OCCN` (configuration not stated) [LPE (0:0/22:6(4Z,7Z,10Z,13Z,16Z,19Z))] belongs 4.71 min; to `CCCCCC=CCC=CCC=CCCCCCCC(=O)OCC(O)COP(=O)(O)OCCN` (configuration not stated) [LPE (20:3)], 4.71 min; to `CCC=CCC=CCC=CCC=CCCCCCCC(=O)OCC(O)COP(=O)(O)OCCN` (configuration not stated) [LPE (20:4(8Z,11Z,14Z,17Z)/0:0)], 4.74 min.

On to `CCCCCCCCCCCCCCCCCCOCC(O)COP(=O)(O)OCC(N)C(=O)O` (configuration not stated) [PS (O-18:0/0:0)], for which the LC retention time is 4.52 min. Regarding `Oc1ccc(C(c2ccc(O)cc2)(C(F)(F)F)C(F)(F)F)cc1` [bisphenol AF], the LC retention time is 0.397 min. Next, `O=c1cc2oc3ccccc3oc-2cc1=O` [dibenzo[1,4]dioxin-2,3-dione]: 2.57 min. Next, `c1ccc(CSSCc2ccccc2)cc1` [dibenzyl disulfide]: 2.39 min; `CC(CCC(=O)NCC(=O)O)C1CCC2C3C(O)CC4CC(OS(=O)(=O)O)CCC4(C)C3CCC12C` (configuration not stated) [glycochenodeoxycholate-3-sulfate]: 3.38 min; `CC(CCC(=O)NCC(=O)O)C1CCC2C3C(O)CC4CC(O)CCC4(C)C3CCC12C` (configuration not stated) [glycochenodeoxycholic acid (GCDCA)]: 3.78 min. To `CC(CCC(=O)NCC(=O)O)C1CCC2C3C(O)CC4CC(O)CCC4(C)C3CC(O)C12C` (configuration not stated) [glycocholic acid (GCA)] belongs 3.36 min. For the compound `CC(CCC(=O)NCC(=O)O)C1CCC2C3CCC4CC(O)CCC4(C)C3CC(O)C12C` (configuration not stated) [glycodeoxycholic acid (GDCA)], the LC retention time was 3.78 min. To `CCCCCCCCCCCCCC=CC(O)C([NH3+])COP(=O)([O-])O` (configuration not stated) [sphingosine 1-phosphate] belongs 4.36 min. To `CC(CCC(=O)NCCS(=O)(=O)O)C1CCC2C3C(O)CC4CC(O)CCC4(C)C3CCC12C` (configuration not stated) [taurochenodeoxycholic acid (TCDCA)] belongs 3.45 min; to `CC(CCC(=O)NCCS(=O)(=O)O)C1CCC2C3C(O)CC4CC(O)CCC4(C)C3CC(O)C12C` (configuration not stated) [taurocholic acid (TCA)], 3.08 min.
